# Assay results: publication PMC3446843 (Toxicological Sciences, 2012)
# Key:
# [1] = tested on: isolated mouse liver mitochondria, complex I; test: Oxygen consumption through complex I; conditions: for O2 cons CI EC20: inhibition of oxygen consumption, malate + glutamate + ADP, 2µM rotenone = 100%; for effect on oxygen consumption (in words): with malate/glutamate and/or succinate
# [2] = tested on: isolated mouse liver mitochondria; test: Loss of mitochondrial transmembrane potential; type: biochemical; conditions: for ΔΨm loss EC20: 20% of maximal loss of ΔΨm (50µM mClCCP = 100%), 30-min incubation
Compound,O2 cons CI EC20 [1],ΔΨm loss EC20 [2],effect on oxygen consumption (in words) [1],concentrations collapsing the ΔΨm and altering the mitochondrial respiration ([2]; ΔΨm and respiration)
CC(=O)Nc1ccc(O)cc1 [Acetaminophen],> 400 µM,> 200 µM,–,–
CC(=O)Oc1ccccc1C(=O)O [Acetylsalicylic acid],149.8 µM,335.5 µM,–,–
CCCN(CCC)C(=O)Cc1c(-c2ccc(Cl)cc2)nc2ccc(Cl)cn12 [Alpidem],29.6 µM,83.7 µM,–,–
NC12CC3CC(CC(C3)C1)C2 [Amantadine],> 400 µM,261.2 µM,–,–
Nc1c(Br)cc(Br)cc1CN[C@H]1CC[C@H](O)CC1 [Ambroxol],> 200 µM,> 200 µM,–,–
Cc1cc(=O)n(-c2ccccc2)n1C [Antipyrine],> 400 µM,300.0 µM,–,–
O=C(O)CCCC[C@@H]1SC[C@@H]2NC(=O)N[C@@H]21 [Biotin],> 400 µM,> 400 µM,–,–
CC(=O)Oc1ccc(C(c2ccc(OC(C)=O)cc2)c2ccccn2)cc1 [Bisacodyl],52.5 µM,312.4 µM,–,–
CCCCN1CCCCC1C(=O)Nc1c(C)cccc1C (stereo not drawn) [Bupivacaine],> 800 µM,258.2 µM,–,–
Cn1c(=O)c2c(ncn2C)n(C)c1=O [Caffeine],> 400 µM,> 400 µM,–,–
COc1cc(CNC(=O)CCCC/C=C/C(C)C)ccc1O [Capsaicin],15.7 µM,275.0 µM,–,–
NC(=O)N1c2ccccc2C=Cc2ccccc21 [Carbamazepine],–,66.9 µM,increased oxygen consumption,–
C=CC1=C(C(=O)O)N2C(=O)[C@@H](NC(=O)/C(=N\OCC(=O)O)c3csc(N)n3)[C@H]2SC1 [Cefixime],216.8 µM,> 400 µM,–,–
O=C(O)CCCc1ccc(N(CCCl)CCCl)cc1 [Chlorambucil],140.9 µM,> 200 µM,–,–
O=P(O)(O)C(Cl)(Cl)P(=O)(O)O [Clodronate],227.2 µM,> 400 µM,–,–
COc1cc(/C=C/C(=O)CC(=O)/C=C/c2ccc(O)c(OC)c2)ccc1O [Curcumin],> 200 µM,> 200 µM,–,–
CC(C)(S)[C@@H](N)C(=O)O [D-penicillamine],> 800 µM,> 400 µM,–,–
Nc1ccc(S(=O)(=O)c2ccc(N)cc2)cc1 [Dapsone],205.5 µM,> 400 µM,–,–
COc1cccc2c1C(=O)c1c(O)c3c(c(O)c1C2=O)C[C@@](O)(C(C)=O)C[C@@H]3O[C@H]1C[C@H](N)[C@H](O)[C@H](C)O1 [Daunorubicin],10.9 µM,–,–,–
C[C@@H]1C[C@H]2[C@@H]3CCC4=CC(=O)C=C[C@]4(C)[C@@]3(F)[C@@H](O)C[C@]2(C)[C@@]1(O)C(=O)CO [Dexamethasone],> 200 µM,> 200 µM,–,–
Cc1c(N(C)CS(=O)(=O)[O-])c(=O)n(-c2ccccc2)n1C.[Na+] [Dipyrone],107.3 µM,354.4 µM,–,–

Compound,O2 cons CI EC20 [1],ΔΨm loss EC20 [2],effect on oxygen consumption (in words) [1],concentrations collapsing the ΔΨm and altering the mitochondrial respiration ([2]; ΔΨm and respiration)
C#Cc1cccc(Nc2ncnc3cc(OCCOC)c(OCCOC)cc23)c1 [Erlotinib],–,195.9 µM,increased oxygen consumption,–
CC[C@H]1OC(=O)[C@H](C)[C@@H](O[C@H]2C[C@@](C)(OC)[C@@H](O)[C@H](C)O2)[C@H](C)[C@@H](O[C@@H]2O[C@H](C)C[C@H](N(C)C)[C@H]2O)[C@](C)(O)C[C@@H](C)C(=O)[C@H](C)[C@@H](O)[C@]1(C)O [Erythromycin],27.9 µM,> 400 µM,–,–
CCOC(=O)c1ccc(O)cc1 [Ethyl paraben],47.8 µM,297.5 µM,–,–
OC(Cn1cncn1)(Cn1cncn1)c1ccc(F)cc1F [Fluconazole],186.6 µM,512.7 µM,–,–
Nc1nc2ncc(CNc3ccc(C(=O)N[C@@H](CCC(=O)O)C(=O)O)cc3)nc2c(=O)[nH]1 [Folic acid],213.0 µM,276.2 µM,–,–
O=C(O)c1cc(O)c(O)c(O)c1 [Gallic acid],153.9 µM,> 200 µM,–,–
CC(C)Cc1ccc(C(C)C(=O)O)cc1 (stereo not drawn) [Ibuprofen],132.1 µM,355.9 µM,–,–
CC(=O)N1CCN(c2ccc(OCC3COC(Cn4ccnc4)(c4ccc(Cl)cc4Cl)O3)cc2)CC1 (stereo not drawn) [Ketoconazole],2.9 µM,243.0 µM,–,–
Nc1ccn([C@@H]2CS[C@H](CO)O2)c(=O)n1 [Lamivudine],317.4 µM,347.2 µM,–,–
CCN(CC)CC(=O)Nc1c(C)cccc1C [Lidocaine],–,339.5 µM,increased oxygen consumption,–
CC[C@H](C)C(=O)O[C@H]1C[C@@H](C)C=C2C=C[C@H](C)[C@H](CC[C@@H]3C[C@@H](O)CC(=O)O3)[C@H]21 [Lovastatin],6.2 µM,43.6 µM,–,–
Cc1ccc(Nc2c(F)cccc2Cl)c(CC(=O)O)c1 [Lumiracoxib],12.0 µM,148.8 µM,–,–
[Cl][Mn][Cl] [Manganese chloride],> 400 µM,> 800 µM,–,–
CN(C)C(=N)N=C(N)N [Metformin],351.8 µM,388.4 µM,–,–
COC(=O)c1ccc(O)cc1 [Methyl paraben],94.8 µM,> 200 µM,–,–
C[C@](N)(Cc1ccc(O)c(O)c1)C(=O)O [Methyldopa],63.1 µM,> 400 µM,–,–
CCOC(=O)[N-]c1cn(N2CCOCC2)n[o+]1 [Molsidomine],> 200 µM,> 400 µM,–,–
C=CCN1CC[C@]23c4c5ccc(O)c4O[C@H]2C(=O)CC[C@@]3(O)[C@H]1C5 [Naloxone],> 400 µM,298.7 µM,–,–
CN1CCC[C@H]1c1cccnc1 [Nicotine],312 µM,> 400 µM,–,–
O=C(N/N=C/c1ccc([N+](=O)[O-])o1)c1ccc(O)cc1 [Nifuroxazide],3.7 µM,388.2 µM,–,–
O=C1CN(/N=C/c2ccc([N+](=O)[O-])o2)C(=O)N1 [Nitrofurantoin],8.7 µM,442.5 µM,–,–

Compound,O2 cons CI EC20 [1],ΔΨm loss EC20 [2],effect on oxygen consumption (in words) [1],concentrations collapsing the ΔΨm and altering the mitochondrial respiration ([2]; ΔΨm and respiration)
CO[C@@H]1[C@@H](OC(N)=O)[C@@H](O)[C@H](Oc2ccc3c(O)c(NC(=O)c4ccc(O)c(CC=C(C)C)c4)c(=O)oc3c2C)OC1(C)C [Novobiocin],173.5 µM,351.6 µM,–,–
CCN(CC)CC#CCOC(=O)C(O)(c1ccccc1)C1CCCCC1 (stereo not drawn) [Oxybutynine],115.4 µM,178.3 µM,–,–
C#CCN(C)Cc1ccccc1 [Pargyline],206.8 µM,243 µM,–,–
Oc1cc(O)cc(O)c1 [Phloroglucinol],> 400 µM,> 800 µM,–,–
CN1C(C(=O)Nc2ccccn2)=C(O)c2ccccc2S1(=O)=O [Piroxicam],6.6 µM,101.7 µM,–,–
CCCOC(=O)c1ccc(O)cc1 [Propyl paraben],28.4 µM,162.8 µM,–,–
NC(=O)c1cnccn1 [Pyrazinamide],190.9 µM,> 400 µM,–,–
CNC(=C[N+](=O)[O-])NCCSCc1ccc(CN(C)C)o1 [Ranitidine],97.3 µM,368.1 µM,–,–
Cc1cc2nc3c(=O)[nH]c(=O)nc-3n(C[C@H](O)[C@H](O)[C@H](O)CO)c2cc1C [Riboflavin],182.8 µM,–,–,–
O=C1NS(=O)(=O)c2ccccc21 [Saccharin],179.4 µM,> 400 µM,–,–
O=C(O)c1ccccc1O [Salicylic acid],120.9 µM,304.3 µM,–,–
CC(C)(C)NC(=O)[C@@H]1C[C@@H]2CCCC[C@@H]2CN1C[C@@H](O)[C@H](Cc1ccccc1)NC(=O)[C@H](CC(N)=O)NC(=O)c1ccc2ccccc2n1 [Saquinavir],–,10.3 µM,increased oxygen consumption,lower than 50 μM
CN[C@@H]1[C@H](O)[C@H](NC)[C@H]2O[C@@]3(O)C(=O)C[C@@H](C)O[C@H]3O[C@@H]2[C@H]1O [Spectinomycin],–,> 400 µM,increased oxygen consumption,–
OC[C@H]1O[C@@](CO)(O[C@H]2O[C@H](CO)[C@@H](O)[C@H](O)[C@H]2O)[C@@H](O)[C@@H]1O [Sucrose],> 800 µM,> 800 µM,–,–
Cc1cc(NS(=O)(=O)c2ccc(N)cc2)no1 [Sulfamethoxazole],> 400 µM,> 400 µM,–,–
CC1=C(CC(=O)O)c2cc(F)ccc2/C1=C\c1ccc([S+](C)[O-])cc1 (stereo not drawn) [Sulindac],35.6 µM,> 200 µM,–,–
NCCS(=O)(=O)O [Taurine],> 800 µM,> 800 µM,–,–
C[C@@H]1O[C@@H](OC[C@H]2O[C@@H](Oc3c(-c4ccc(OCCO)c(OCCO)c4)oc4cc(OCCO)cc(O)c4c3=O)[C@H](O)[C@@H](O)[C@@H]2O)[C@H](O)[C@H](O)[C@H]1O [Troxerutin],170.5 µM,> 400 µM,–,–
CCCC(CCC)C(=O)O [Valproic acid],44.9 µM,267.2 µM,–,–
CC[C@]1(O)C[C@@H]2CN(CCc3c([nH]c4ccccc34)[C@@](C(=O)OC)(c3cc4c(cc3OC)N(C)[C@H]3[C@@](O)(C(=O)OC)[C@H](OC(C)=O)[C@]5(CC)C=CCN6CC[C@]43[C@@H]65)C2)C1 [Vinblastine],–,25.7 µM,–,–
CCOC(=O)CN[C@@H](C(=O)N1CC[C@H]1C(=O)NCc1ccc(/C(N)=N\O)cc1)C1CCCCC1 [Ximelagatran],–,535.7 µM,–,–
